Test results from US20070157323A1, “In vivo odorant receptor systems and their uses” (priority 2003, published 2007).

Tests used:
[1] = tested on: Rhagoletis pomonella flies; conditions: Nojima et al.; cited from earlier work
[2] = tested on: ab3A neuron; conditions: cited from earlier work; for strongest responses of the A neuron: sensilla expressing Or22a and Or22b
[3] = tested on: V. pensylvanica; conditions: Davis et al.; MacDonald et al.; McGovern et al.; cited from earlier work
[4] = tested on: Oedaleus decorus asiaticus; conditions: both sexes; Chen et al.; cited from earlier work
[5] = tested on: Angaracris barabensis; conditions: both sexes; Chen et al.; cited from earlier work
[6] = tested on: generalist predator; conditions: volatiles released individually, Nicotiana attenuata; Kessler et al.; cited from earlier work
[7] = tested on: B neuron; conditions: sensilla expressing Or22a and Or22b; cited from earlier work
[8] = molecular target: T1, AgOr2 (Anopheles gambiae, UniProt Q8WTE6); test: Single-unit electrophysiology of Drosophila ab3A neuron (Δhalo) expressing AgOr2; type: in vivo; conditions: liquid odors diluted 10^−4, solid odors 0.2 mg/ml in paraffin oil, 0.5 s pulse, FIG. 1b
T1 construct: expressed in transfected cells; host or cells: Transgenic Drosophila, ab3A olfactory receptor neuron lacking Or22a/Or22b (Δhalo), GAL4-UAS
T1 sequence (Q8WTE6 1-378): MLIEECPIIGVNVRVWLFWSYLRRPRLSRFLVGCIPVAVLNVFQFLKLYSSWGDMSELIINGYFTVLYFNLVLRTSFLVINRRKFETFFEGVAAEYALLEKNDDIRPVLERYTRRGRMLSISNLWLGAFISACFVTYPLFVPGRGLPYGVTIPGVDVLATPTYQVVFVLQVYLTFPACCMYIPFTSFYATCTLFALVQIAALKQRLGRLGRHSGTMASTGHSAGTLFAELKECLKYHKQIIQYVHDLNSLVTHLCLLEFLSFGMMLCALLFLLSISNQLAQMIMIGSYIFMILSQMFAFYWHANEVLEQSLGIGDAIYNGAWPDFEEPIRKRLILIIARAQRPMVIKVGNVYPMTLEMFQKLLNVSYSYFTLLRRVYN
T1 sequence (Q9VNB5 1-486 partner): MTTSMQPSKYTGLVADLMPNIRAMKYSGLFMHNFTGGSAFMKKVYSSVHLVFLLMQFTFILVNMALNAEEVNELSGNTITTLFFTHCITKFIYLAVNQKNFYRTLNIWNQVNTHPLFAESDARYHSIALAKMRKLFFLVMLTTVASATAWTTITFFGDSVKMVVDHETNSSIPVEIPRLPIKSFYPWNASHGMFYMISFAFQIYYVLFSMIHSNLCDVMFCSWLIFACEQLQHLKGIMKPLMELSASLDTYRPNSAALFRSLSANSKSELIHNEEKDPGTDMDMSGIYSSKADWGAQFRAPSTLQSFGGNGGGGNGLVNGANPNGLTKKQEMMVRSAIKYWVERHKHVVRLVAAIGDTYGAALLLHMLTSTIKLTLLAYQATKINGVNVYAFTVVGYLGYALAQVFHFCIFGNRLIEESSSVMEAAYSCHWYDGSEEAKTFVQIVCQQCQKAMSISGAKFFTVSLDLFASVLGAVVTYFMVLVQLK
Experimental: (§1) In summary, odorant receptors are introduced specifically into Δab3A using the GAL4/UAS system and Or22a-GAL4 is used to drive expression from a UAS-Or construct. The odorant response of the neuron (Δab3A:OrX) is assayed electrophysiologically.
(§2) To investigate the function of the A. gambiae odorant receptor genes AgOr1 and AgOr2 directly, these genes were expressed in the Drosophila olfactory receptor neuron that lacks odor response due to the deletion of its endogenous receptor genes, Or22a and Or22b using an Or22a promoter and the GAL4-UAS system.
(§3) AgOr1 and AgOr2 were expressed in the Δhalo background using the GAL4-UAS system. Specifically AgOr1 or AgOr2 was placed under the control of a UAS and expressed using the 22a-GAL4 driver so as to drive its expression in ab3A cells. […]
(§4) Action potentials of the ORNs in a sensillum were recorded by placing an electrode through the sensillum wall into contact with the lymph that bathes the dendrites. […] Recordings were analyzed offline in IGOR-Pro (WaveMetrics, Lake Oswego, Oreg.).
(§5) Odor stimuli were presented from Pasteur pipettes holding solutions of chemicals in paraffin oil on filter paper. […] Responses of the ab3A neurons were quantified by subtracting the number of impulses (i.e., spikes) in 500 ms of spontaneous activity from the number in the 500 ms after the onset of odor stimulation (FIG. 1).

[9] = tested on: Apol PBP1a; conditions: 3H-labeled ligand; cited from earlier work
[10] = tested on: Apol PBP3; conditions: 3H-labeled ligand; cited from earlier work
[11] = molecular target: T2, Aper PBP2 (Antheraea pernyi, UniProt Q17078); conditions: cited from earlier work
T2 construct: from tissue; host or cells: Sensory hair homogenates of A. pernyi (study quoted from the literature)
T2 sequence (Q17078 23-164): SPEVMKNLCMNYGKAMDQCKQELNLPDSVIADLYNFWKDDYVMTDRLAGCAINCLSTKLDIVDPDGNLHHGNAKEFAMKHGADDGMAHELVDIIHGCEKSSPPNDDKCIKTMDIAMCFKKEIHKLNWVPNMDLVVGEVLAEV

[12] = tested on: Aper PBP1; conditions: cited from earlier work
[13] = tested on: lepidopteran; conditions: Nicotiana attenuata; Kessler et al.; cited from earlier work
[14] = molecular target: T3, AgOr1 (Anopheles gambiae, UniProt Q8WTE7); test: Single-unit electrophysiology of Drosophila ab3A neuron (Δhalo) expressing AgOr1; type: in vivo; conditions: liquid odors diluted 10^−4, solid odors 0.2 mg/ml in paraffin oil, 0.5 s pulse, FIG. 1a
T3 construct: expressed in transfected cells; host or cells: Transgenic Drosophila, ab3A olfactory receptor neuron lacking Or22a/Or22b (Δhalo), GAL4-UAS
T3 sequence (Q8WTE7 1-417): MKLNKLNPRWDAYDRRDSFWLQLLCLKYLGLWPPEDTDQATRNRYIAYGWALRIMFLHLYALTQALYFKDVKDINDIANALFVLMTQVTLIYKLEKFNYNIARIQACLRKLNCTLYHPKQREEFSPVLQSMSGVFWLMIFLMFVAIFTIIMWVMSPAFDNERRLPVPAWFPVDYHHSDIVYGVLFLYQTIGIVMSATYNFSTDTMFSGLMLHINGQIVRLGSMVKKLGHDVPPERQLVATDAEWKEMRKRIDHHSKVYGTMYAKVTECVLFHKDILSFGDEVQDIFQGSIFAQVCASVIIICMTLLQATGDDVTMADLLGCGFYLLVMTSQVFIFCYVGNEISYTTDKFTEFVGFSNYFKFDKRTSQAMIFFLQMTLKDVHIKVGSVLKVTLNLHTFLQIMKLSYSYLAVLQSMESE
T3 sequence (Q9VNB5 1-486 partner): T1 sequence (Q9VNB5 1-486 partner)
Experimental: as §1, §2, §3, §4, §5

[15] = tested on: Glossina morsitans morsitans; conditions: Vale et al., 1988; cited from earlier work

Compound: C=C/C=C(\C)CCC=C(C)C [4,8-dimethyl-1,3(E),7-nonatriene]
- EAD activity [1]: Consistent EAD activity

Compound: CCOC(C)=O [ethyl acetate]
- strongest responses of the A neuron [2]: strongest responses
- EAD activity [1]: Consistent EAD activity

Compound: CCCCCOC(C)=O [pentyl acetate]
- strongest responses of the A neuron [2]: strongest responses

Compound: CCCCCCCCOC(=O)CCC [octyl butyrate]
- attraction of V. pensylvanica [3]: attract

Compound: CCC/C=C/CO [E-2-hexen-1-ol]
- EAG responses [4]: Strong EAG responses
- EAG responses [5]: Strong EAG responses

Compound: CCCCCC(=O)OCCCC [butyl hexanoate]
- EAD activity [1]: Consistent EAD activity

Compound: CC/C=C/CCO [E-hexen-3-ol-1]
- EAG responses [4]: Strong EAG responses
- EAG responses [5]: Strong EAG responses

Compound: CC(C)CCO [3-methylbutan-1-ol]
- EAD activity [1]: Consistent EAD activity

Compound: CCC/C=C\CO [Z-hexen-2-ol-1]
- EAG responses [4]: Strong EAG responses
- EAG responses [5]: Strong EAG responses

Compound: CC(C)=CCC[C@]1(C)[C@H]2CC=C(C)[C@@H]1C2 (relative stereo) [cis-alpha-bergamotene]
- egg predation rates by a generalist predator [6]: increased egg predation rates

Compound: CCCCCCCOC(=O)CCC [heptyl butyrate]
- attraction of V. pensylvanica [3]: attract

Compound: CC(=O)OCCC(C)C [isoamyl acetate]
- EAD activity [1]: Consistent EAD activity

Compound: CC(=O)CCC1=C(C)CCCC1(C)C [dihydro-beta-ionone]
- EAD activity [1]: Consistent EAD activity

Compound: CC/C=C\CCOC(C)=O [Z-hexen-3-yl acetate]
- EAG responses [4]: Strong EAG responses
- EAG responses [5]: Strong EAG responses

Compound: CCC/C=C/C=O [E-2-hexen-1-al]
- EAG responses [4]: Strong EAG responses
- EAG responses [5]: Strong EAG responses

Compound: CCCCCCCO [1-heptanol]
- EAG responses [4]: Strong EAG responses
- EAG responses [5]: Strong EAG responses

Compound: CCCCCC(C)=O [heptanone]
- strongest responses of the B neuron [7]: strongest responses

Compound: Cc1ccccc1O [2-methylphenol]
- odor response conferred by AgOr2 [8]: strong response

Compound: C=CC(O)CCCCC (stereo not shown) [octenol]
- strongest responses of the B neuron [7]: strongest responses

Compound: CC=CC=CCOC(=O)C(C)C [2,4-hexadienyl isobutyrate]
- attraction of V. pensylvanica [3]: attract

Compound: CC=CC=CCOC(=O)CC [2,4-hexadienyl propionate]
- attraction of V. pensylvanica [3]: attract

Compound: CCCC(=O)OCC [ethyl butyrate]
- sensitivity of ab3A ([2]; in vivo): highly sensitive
- strongest responses of the A neuron [2]: strongest responses

Compound: CCCCCCO [1-hexanol]
- EAG responses [4]: Strong EAG responses
- EAG responses [5]: Strong EAG responses

Compound: CCCC/C=C\CCC/C=C/CCCCC=O [ALD, (E,Z)-6,11-hexadecadienal]
- binding to Apol PBP1a [9]: no binding
- binding to Apol PBP3 [10]: no binding
- binding affinity to Aper PBP2 [11]: showed binding affinity

Compound: CC/C=C\CCO [cis-3-hexen-1-ol]
- egg predation rates by a generalist predator [6]: increased egg predation rates

Compound: CC=CC=CCOC(=O)CCC [2,4-Hexadienyl butyrate]
- attraction of V. pensylvanica [3]: attract

Compound: CCCC/C=C\CCC/C=C/CCCCCOC(C)=O [AC1, (E,Z)-6,11-hexadecadienyl acetate]
- binding to Apol PBP1a [9]: bound
- binding to Apol PBP3 [10]: bound
- binding affinity to Aper PBP1 [12]: showed binding affinity

Compound: CCCCCCO [hexanol]
- strongest responses of the B neuron [7]: strongest responses

Compound: C=CC(C)(O)CCC=C(C)C (stereo not shown) [linalool]
- egg predation rates by a generalist predator [6]: increased egg predation rates
- lepidopteran oviposition rates [13]: decreased lepidopteran oviposition rates

Compound: Cc1ccc(O)cc1 [4-methylphenol]
- odor response of mutant flies expressing AgOr1 [14]: strong response
- odor response conferred by AgOr2 [8]: not
- effectiveness of traps for the tsetse fly [15]: increase the effectiveness of traps
